Test results taken from patent US20210045385A1, “PYRIDAZINONE-SUBSTITUTED KETOXIMES AS HERBICIDES” (FMC Corporation, priority 2018, published 2021).

Key:
Assay type in all cases: in vivo
[1] = system: Italian ryegrass (Lolium multiflorum); experiment: Test A preemergence, visual plant response rating; settings: for Ryegrass, Italian plant response rating: 125 g ai/ha, preemergence, 0 to 100 scale, 0 no effect, 100 complete control; for Ryegrass, Italian plant response rating (0 to 100 scale): 500 g ai/ha Preemergence, approx. 10 days
Procedure, shortened: (§1)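 Ratings use a 0–100 visual scale (100 = complete control) against untreated controls, scored about 10 days after greenhouse treatment. Test chemicals were formulated in surfactant-containing non-phytotoxic solvent and applied either as soil spray after planting (preemergence) or onto one- to two-leaf, 2–10 cm plants (postemergence).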

[2] = system: barnyardgrass (Echinochloa crus-galli); experiment: Test A preemergence, visual plant response rating; settings: for Barnyardgrass plant response rating: 125 g ai/ha, preemergence, 0 to 100 scale, 0 no effect, 100 complete control; for Barnyardgrass plant response rating (0 to 100 scale): 500 g ai/ha Preemergence, approx. 10 days
Procedure, shortened: as §1

[3] = system: foxtail, giant (giant foxtail, Setaria faberii); experiment: Test A preemergence, visual plant response rating; settings: for Foxtail, Giant plant response rating: 125 g ai/ha, preemergence, 0 to 100 scale, 0 no effect, 100 complete control; for Foxtail, Giant plant response rating (0 to 100 scale): 500 g ai/ha Preemergence, approx. 10 days
Procedure, shortened: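 Formulated in a non-phytotoxic solvent mixture including surfactant, each test chemical was sprayed onto the soil surface after sowing, or onto seedlings 2 to 10 cm high. Roughly 10 days later, plants were compared with untreated controls and rated for injury from 0 (no effect) to 100 (complete control).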

kochia (Kochia scoparia) [4] = experiment: Test A preemergence, visual plant response rating; settings: for Kochia plant response rating: 125 g ai/ha, preemergence, 0 to 100 scale, 0 no effect, 100 complete control; for Kochia plant response rating (0 to 100 scale): 500 g ai/ha Preemergence, approx. 10 days
Procedure, shortened: as §1

[5] = system: pigweed (Amaranthus retroflexus); experiment: Test A preemergence, visual plant response rating; settings: for Pigweed plant response rating: 125 g ai/ha, preemergence, 0 to 100 scale, 0 no effect, 100 complete control; for Pigweed plant response rating (0 to 100 scale): 500 g ai/ha Preemergence, approx. 10 days
Procedure, shortened: as §1

[6] = system: ragweed (common ragweed, Ambrosia elatior); experiment: Test A preemergence, visual plant response rating; settings: for Ragweed plant response rating: 125 g ai/ha, preemergence, 0 to 100 scale, 0 no effect, 100 complete control; for Ragweed plant response rating (0 to 100 scale): 500 g ai/ha Preemergence, approx. 10 days
Procedure, shortened: as §1

[7] = system: Italian ryegrass (Lolium multiflorum); experiment: Test A postemergence, visual plant response rating; settings: for Ryegrass, Italian plant response rating (0 to 100 scale): 500 g ai/ha, postemergence, 0 is no effect, 100 is complete control; for Ryegrass, Italian plant response rating: Postemergence, 125 g ai/ha, 0 to 100 scale (0 no effect, 100 complete control)
Procedure, shortened: as §1

[8] = system: barnyardgrass (Echinochloa crus-galli); experiment: Test A postemergence, visual plant response rating; settings: for Barnyardgrass plant response rating (0 to 100 scale): 500 g ai/ha, postemergence, 0 is no effect, 100 is complete control; for Barnyardgrass plant response rating: Postemergence, 125 g ai/ha, 0 to 100 scale (0 no effect, 100 complete control)
Procedure, shortened: as §1

[9] = system: blackgrass (Alopecurus myosuroides); experiment: Test A postemergence, visual plant response rating; settings: for Blackgrass plant response rating (0 to 100 scale): 500 g ai/ha, postemergence, 0 is no effect, 100 is complete control; for Blackgrass plant response rating: Postemergence, 125 g ai/ha, 0 to 100 scale (0 no effect, 100 complete control)
Procedure, shortened: as §1

corn (Zea mays) = experiment: Test A postemergence, visual plant response rating; settings: for Corn plant response rating (0 to 100 scale): 500 g ai/ha, postemergence, 0 is no effect, 100 is complete control; for Corn plant response rating: Postemergence, 125 g ai/ha, 0 to 100 scale (0 no effect, 100 complete control)
Procedure, shortened: as §1

[10] = system: foxtail, giant (giant foxtail, Setaria faberii); experiment: Test A postemergence, visual plant response rating; settings: for Foxtail, Giant plant response rating (0 to 100 scale): 500 g ai/ha, postemergence, 0 is no effect, 100 is complete control; for Foxtail, Giant plant response rating: Postemergence, 125 g ai/ha, 0 to 100 scale (0 no effect, 100 complete control)
Procedure, shortened: as §1

[11] = system: galium (catchweed bedstraw, Galium aparine); experiment: Test A postemergence, visual plant response rating; settings: for Galium plant response rating (0 to 100 scale): 500 g ai/ha, postemergence, 0 is no effect, 100 is complete control; for Galium plant response rating: Postemergence, 125 g ai/ha, 0 to 100 scale (0 no effect, 100 complete control)
Procedure, shortened: as §1

kochia (Kochia scoparia) [12] = experiment: Test A postemergence, visual plant response rating; settings: for Kochia plant response rating (0 to 100 scale): 500 g ai/ha, postemergence, 0 is no effect, 100 is complete control; for Kochia plant response rating: Postemergence, 125 g ai/ha, 0 to 100 scale (0 no effect, 100 complete control)
Procedure, shortened: as §1

[13] = system: pigweed (Amaranthus retroflexus); experiment: Test A postemergence, visual plant response rating; settings: for Pigweed plant response rating (0 to 100 scale): 500 g ai/ha, postemergence, 0 is no effect, 100 is complete control; for Pigweed plant response rating: Postemergence, 125 g ai/ha, 0 to 100 scale (0 no effect, 100 complete control)
Procedure, shortened: as §1

[14] = system: ragweed (common ragweed, Ambrosia elatior); experiment: Test A postemergence, visual plant response rating; settings: for Ragweed plant response rating (0 to 100 scale): 500 g ai/ha, postemergence, 0 is no effect, 100 is complete control; for Ragweed plant response rating: Postemergence, 125 g ai/ha, 0 to 100 scale (0 no effect, 100 complete control)
Procedure, shortened: as §1

[15] = system: wheat (Triticum aestivum); experiment: Test A postemergence, visual plant response rating; settings: for Wheat plant response rating (0 to 100 scale): 500 g ai/ha, postemergence, 0 is no effect, 100 is complete control; for Wheat plant response rating: Postemergence, 125 g ai/ha, 0 to 100 scale (0 no effect, 100 complete control)
Procedure, shortened: as §1

[16] = system: barnyardgrass (Echinochloa crus-galli); experiment: Test B flooded paddy test, visual plant response rating; settings: 250 g ai/ha, Flood, applied to paddy water, 2-leaf stage, evaluated after 13 to 15 days
Procedure, shortened: (§2)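 Greenhouse paddy conditions applied: two-leaf plants, a 3 cm flood above the soil surface maintained throughout, and compound added to the water rather than the foliage. Plants were judged visually against controls at 13 to 15 days.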

[17] = system: ducksalad (Heteranhera limosa); experiment: as above; settings: 250 g ai/ha, Flood, applied to paddy water, 2-leaf stage, evaluated after 13 to 15 days
Procedure, shortened: as §2

rice (Oryza sativa) = experiment: as above; settings: 250 g ai/ha, Flood, applied to paddy water, 2-leaf stage, evaluated after 13 to 15 days
Procedure, shortened: as §2

[18] = system: sedge, umbrella (small-flower umbrella sedge, Cyperus difformis); experiment: as above; settings: 250 g ai/ha, Flood, applied to paddy water, 2-leaf stage, evaluated after 13 to 15 days
Procedure, shortened: as §2

SMILES	Ryegrass, Italian plant response rating [1]	Ryegrass, Italian plant response rating (0 to 100 scale) [1]	Barnyardgrass plant response rating [2]	Barnyardgrass plant response rating (0 to 100 scale) [2]	Foxtail, Giant plant response rating [3]	Foxtail, Giant plant response rating (0 to 100 scale) [3]	Kochia plant response rating (0 to 100 scale) (kochia (Kochia scoparia) [4])	Pigweed plant response rating [5]	Pigweed plant response rating (0 to 100 scale) [5]	Ragweed plant response rating [6]	Ragweed plant response rating (0 to 100 scale) [6]	Ryegrass, Italian plant response rating (0 to 100 scale) [7]	Ryegrass, Italian plant response rating [7]	Barnyardgrass plant response rating (0 to 100 scale) [8]	Barnyardgrass plant response rating [8]	Blackgrass plant response rating (0 to 100 scale) [9]	Blackgrass plant response rating [9]	Corn plant response rating (0 to 100 scale) (corn (Zea mays))	Corn plant response rating (corn (Zea mays))	Foxtail, Giant plant response rating (0 to 100 scale) [10]	further results
C#CCO/N=C(/c1c(O)c(C)nn(C)c1=O)c1cc(Br)cc2ccccc12 [Compound 112, 4-[(E)-(3-bromo-1-naphthalenyl)[(2-propyn-1-yloxy)imino]methyl]-5-hydroxy-2,6-dimethyl-3(2H)-pyridazinone]	100	100	100	100	100	100	80	100	100	90	90	100	90	90	80	100	100	90	20	90	Kochia plant response rating (kochia (Kochia scoparia) [4]): 50; Foxtail, Giant plant response rating [10]: 90; Galium plant response rating (0 to 100 scale) [11]: 100; Galium plant response rating [11]: 100; Kochia plant response rating (0 to 100 scale) (kochia (Kochia scoparia) [12]): 90; Kochia plant response rating (kochia (Kochia scoparia) [12]): 70; Pigweed plant response rating (0 to 100 scale) [13]: 100; Pigweed plant response rating [13]: 90; Ragweed plant response rating (0 to 100 scale) [14]: 100; Ragweed plant response rating [14]: 100; Wheat plant response rating (0 to 100 scale) [15]: 70; Wheat plant response rating [15]: 50; Plant response rating, Barnyardgrass (0 to 100 scale, 0 is no effect, 100 is complete control) [16]: 55; Plant response rating, Ducksalad (0 to 100 scale, 0 is no effect, 100 is complete control) [17]: 60; Plant response rating, Rice (0 to 100 scale, 0 is no effect, 100 is complete control) (rice (Oryza sativa)): 0; Plant response rating, Sedge, Umbrella (0 to 100 scale, 0 is no effect, 100 is complete control) [18]: 60
CCO/N=C(/c1c(O)c(C)nn(C)c1=O)c1cc(Br)cc2ccccc12 [Compound 113, 4-[(E)-(3-bromo-1-naphthalenyl)(ethoxyimino)methyl]-5-hydroxy-2,6-dimethyl-3(2H)-pyridazinone]	80	100	90	100	100	100	90	80	100	90	90	90	80	90	90	100	90	80	40	90	Kochia plant response rating (kochia (Kochia scoparia) [4]): 30; Foxtail, Giant plant response rating [10]: 90; Galium plant response rating (0 to 100 scale) [11]: 100; Galium plant response rating [11]: 100; Kochia plant response rating (0 to 100 scale) (kochia (Kochia scoparia) [12]): 90; Kochia plant response rating (kochia (Kochia scoparia) [12]): 60; Pigweed plant response rating (0 to 100 scale) [13]: 100; Pigweed plant response rating [13]: 100; Ragweed plant response rating (0 to 100 scale) [14]: 100; Ragweed plant response rating [14]: 90; Wheat plant response rating (0 to 100 scale) [15]: 60; Wheat plant response rating [15]: 50; Plant response rating, Barnyardgrass (0 to 100 scale, 0 is no effect, 100 is complete control) [16]: 85; Plant response rating, Ducksalad (0 to 100 scale, 0 is no effect, 100 is complete control) [17]: 75; Plant response rating, Rice (0 to 100 scale, 0 is no effect, 100 is complete control) (rice (Oryza sativa)): 60; Plant response rating, Sedge, Umbrella (0 to 100 scale, 0 is no effect, 100 is complete control) [18]: 50
C=CCON=C(c1c(O)c(C)nn(C)c1=O)c1cc(Br)cc2ccccc12 [Compound 114]	70	100	90	100	100	100	20	10	80	80	90	90	80	90	80	90	80	80	20	90	Kochia plant response rating (kochia (Kochia scoparia) [4]): 10; Foxtail, Giant plant response rating [10]: 90; Galium plant response rating (0 to 100 scale) [11]: 100; Galium plant response rating [11]: 100; Kochia plant response rating (0 to 100 scale) (kochia (Kochia scoparia) [12]): 40; Kochia plant response rating (kochia (Kochia scoparia) [12]): 30; Pigweed plant response rating (0 to 100 scale) [13]: 90; Pigweed plant response rating [13]: 70; Ragweed plant response rating (0 to 100 scale) [14]: 100; Ragweed plant response rating [14]: 90; Wheat plant response rating (0 to 100 scale) [15]: 50; Wheat plant response rating [15]: 0; Plant response rating, Barnyardgrass (0 to 100 scale, 0 is no effect, 100 is complete control) [16]: 70; Plant response rating, Ducksalad (0 to 100 scale, 0 is no effect, 100 is complete control) [17]: 85; Plant response rating, Rice (0 to 100 scale, 0 is no effect, 100 is complete control) (rice (Oryza sativa)): 35; Plant response rating, Sedge, Umbrella (0 to 100 scale, 0 is no effect, 100 is complete control) [18]: 85
C=CCON=C(c1c(O)c(C)nn(C)c1=O)c1cc(Br)cc2ccccc12 [Compound 115]	80	90	90	100	90	100	10	30	90	90	90	90	80	90	80	90	80	70	20	90	Foxtail, Giant plant response rating [10]: 90; Galium plant response rating (0 to 100 scale) [11]: 100; Galium plant response rating [11]: 100; Kochia plant response rating (0 to 100 scale) (kochia (Kochia scoparia) [12]): 60; Kochia plant response rating (kochia (Kochia scoparia) [12]): 30; Pigweed plant response rating (0 to 100 scale) [13]: 90; Pigweed plant response rating [13]: 60; Ragweed plant response rating (0 to 100 scale) [14]: 100; Ragweed plant response rating [14]: 90; Wheat plant response rating (0 to 100 scale) [15]: 40; Wheat plant response rating [15]: 20; Plant response rating, Barnyardgrass (0 to 100 scale, 0 is no effect, 100 is complete control) [16]: 75; Plant response rating, Ducksalad (0 to 100 scale, 0 is no effect, 100 is complete control) [17]: 80; Plant response rating, Rice (0 to 100 scale, 0 is no effect, 100 is complete control) (rice (Oryza sativa)): 35; Plant response rating, Sedge, Umbrella (0 to 100 scale, 0 is no effect, 100 is complete control) [18]: 85
